Reference: patent publication US7595300B2, “7-quinolyl ketolide antibacterial agents” (priority 2005, dated 2009)
≈ marks a conversion by molar mass, not a printed value. Like-named read-outs stand apart in the source and are kept apart here.

Assays:
M. catarrhalis = assay: MIC, NCCLS broth microdilution, respiratory pathogens; type: cell-based; settings: Moraxella catarrhalis
Description: (§1) Minimum inhibitory concentrations (“MICs”) were determined by the NCCLS broth microdilution procedure for susceptibility testing for bacteria that grow aerobically (National Committee for Clinical Laboratory Standards, 1997. Methods for dilution antimicrobial susceptibility tests for bacteria that grow aerobically, 4th ed. Approved standard. NCCLS Document M7-A4. National Committee for Clinical Laboratory Standards, Villanova, Pa.). Stock solutions were prepared on the day of the test and appropriate aliquots were added to cation adjusted Mueller-Hinton broth (CAMHB, DIFCO) or Haemophilus test media. Two-fold serial dilutions were prepared and added to wells in microtiter plates. Final test concentrations ranged from 8 to 0.004 ug/ml. Broth cultures of bacteria inoculated from growth on overnight plates for all test bacteria except Streptococcus pneumoniae and Haemophilus influenzae were incubated at 35° C. and then adjusted to the Kirby Bauer standard and diluted in CAMHB to achieve a final inoculum concentration of approximately 5×10^5 CFU/ml. Inocula for S. pneumoniae and H. influenzae were prepared by directly suspending colonies from an overnight plate, adjusting the turbidity and diluting as above. S. pneumoniae media was supplemented with 3% lysed horse blood. All plates were incubated in ambient air at 35° C. for 20-24 h for S. pneumoniae and Haemophilus influenzae and 16-20 h for all other bacteria.

Haemophilus influenzae = assay: as above; type: cell-based; settings: H. influenzae
Description: as §1

Streptococcus pneumoniae = assay: as above; type: cell-based; settings: S. pneumoniae
Description: as §1

S. pyogenes = assay: as above; type: cell-based; settings: Streptococcus pyogenes
Description: as §1

in vivo = settings: male, beagle, dog, iv; for AUC: AUCtot
Description: The dosing route was an intravenous infusion jugular vein access). The infusion was accomplished using a CADD Prizm® ambulatory infusion pump attached to a jacket worn by the dog. The dose duration for the intravenous infusion was 30 min for all doses administered, except the last dose (30 mg/kg) where the infusion period was extended to 45 min to accommodate the larger dose volume required for this dose. The vehicle dose and diluent for the test article was 0.05-M sodium citrate in sterile water for injection.
There was one treatment group of four non-naïve dogs and the study was comprised of both pharmacokinetic and telemetry phases, as summarized in the dose administration table for compound (III) (Table 16) below. At least one week was given between dosings to allow clearance of the drug.
For the pharmacokinetic (PK) phase, the blood collection intervals were: predose, 10, 20, 30, (end dose time), 35, 45, 60, 90, 150, 270, 390, 510, 1440, and 2880 min relative to the start of the infusion. Whole blood (˜2 mL) was collected into Vacutainerss' (BD, Franklin, N.J.) containing sodium heparin as the anticoagulant agent. Blood samples were centrifuged at a speed of 3000 rpm, a temperature of 4° C. and a run time of 10 min. Plasma samples were transferred to amber glass vials and analyzed by LC/MS/MS to determine drug concentrations.

P. granulosum = assay: MIC, NCCLS Reference Agar Dilution Method for anaerobic bacteria; type: cell-based, Propionibacterium granulosum
Description: Minimum inhibitory concentrations (“MICs”) were determined by the NCCLS Reference Agar Dilution Method (M11-A5, Vol. 21, No. 2) for anaerobic bacteria. A panel of 84 antibiotic-susceptible and resistant strains of Propionibacteria from distinct geographic locations were selected. Following revival from frozen stocks, each strain was purity plated onto Wilkins Chalgren Agar, pH 7.2 (Oxoid, UK), and the appropriate antibiotic resistance/susceptibility phenotype was confirmed by antibiotic disc testing. Each strain was subjected to an agar dilution MIC assay. […] The inocula for each batch of strains were prepared from 7-day old Wilkins Chalgren Agar plate cultures by resuspension of colonies in Wilkins Chalgren Anaerobe broth, pH 7.2 (Oxoid, UK) to an optical density (OD600) of 0.2±0.02. The inoculum (1.0-2.0 μL) for each strain was applied to a Wilkins Chalgren Agar MIC plate in a grid pattern using a Multipoint Inoculator (Denley, UK). All agar plates were incubated at 37° C. for 3 days under anaerobic conditions in AnaeroPack 7 liter rectangular jars (Mitsubishi Gas Chemical Company, Inc., Japan).

[1] = genotype sensitive, read-out: MIC50
[2] = genotype sensitive, read-out: MIC90

Q: Which MIC50 (M. catarrhalis) does the source give for `CC1CC(N(C)C)C(O)C(O[C@@H]2[C@@H](C)C(=O)[C@](C)(F)C(=O)O[C@H](CCF)[C@@]3(C)OC(=O)N[C@@H]3[C@@H](C)C(=O)[C@H](C)C[C@@]2(C)OC/C=C/c2ccc3cccnc3c2)O1` (some centres unmarked) [Compound (III), 6-O-(1-(7-quinolyl)-3-propenyl)-11-amino-11-deoxy-3-(descladinosyl)-3-oxo-2,15-difluoroerythromycin A-11,12-cyclic carbamate] here?
A: The MIC50 was 0.12 µg/mL (≈ 0.15 µM).

Q: And the MIC90 (M. catarrhalis)?
A: Its MIC90 is 0.12 µg/mL (≈ 0.15 µM).

Q: And the MIC50 (Haemophilus influenzae; resistant)?
A: The MIC50 was greater than 8 µg/mL.

Q: What about the MIC90 (Haemophilus influenzae; resistant) of the same compound?
A: The MIC90 was greater than 8 µg/mL.

Q: And the MIC50 (Haemophilus influenzae; sensitive)?
A: The MIC50 was 2 µg/mL (≈ 2.49 µM).

Q: And the MIC90 (Haemophilus influenzae; sensitive)?
A: Its MIC90 is 4 µg/mL (≈ 4.99 µM).

Q: What about the MIC50 (Streptococcus pneumoniae; 20 h, genotype ermB + mef) of the same compound?
A: Its MIC50 is 0.5 µg/mL.

Q: What about the MIC50 (Streptococcus pneumoniae; genotype ermB) of the same compound?
A: The MIC50 was 0.12 µg/mL (≈ 0.15 µM).

Q: What about the MIC90 (Streptococcus pneumoniae; genotype ermB) of the same compound?
A: Its MIC90 is 0.12 µg/mL (≈ 0.15 µM).

Q: And the MIC90 (Streptococcus pneumoniae; genotype ermB + mef)?
A: The MIC90 was 1 µg/mL.

Q: And the MIC50 (Streptococcus pneumoniae; genotype mef, read-out: MIC50)?
A: Its MIC50 is 0.25 µg/mL (≈ 0.312 µM).

Q: What about the MIC90 (Streptococcus pneumoniae; genotype mef, read-out: MIC90) of the same compound?
A: Its MIC90 is 0.25 µg/mL (≈ 0.312 µM).

Q: What about the MIC50 (Streptococcus pneumoniae; [1]) of the same compound?
A: Its MIC50 is 0.03 µg/mL (≈ 0.0374 µM).

Q: And the MIC90 (Streptococcus pneumoniae; [2])?
A: Its MIC90 is 0.03 µg/mL (≈ 0.0374 µM).

Q: What about the MIC50 (S. pyogenes; genotype ermB) of the same compound?
A: Its MIC50 is 0.12 µg/mL (≈ 0.15 µM).

Q: And the MIC90 (S. pyogenes; genotype ermB)?
A: Its MIC90 is 1 µg/mL (≈ 1.25 µM).

Q: And the MIC50 (S. pyogenes; genotype mef, read-out: MIC50)?
A: Its MIC50 is 0.12 µg/mL (≈ 0.15 µM).

Q: What about the MIC90 (S. pyogenes; genotype mef, read-out: MIC90) of the same compound?
A: Its MIC90 is 0.12 µg/mL (≈ 0.15 µM).

Q: What about the MIC50 (S. pyogenes; [1]) of the same compound?
A: The MIC50 was 0.06 µg/mL (≈ 0.0748 µM).

Q: And the MIC90 (S. pyogenes; [2])?
A: The MIC90 was 0.06 µg/mL (≈ 0.0748 µM).

Q: And the Tmax (in vivo; 11 mg/kg)?
A: The Tmax was 0.46 ± 0.08 h.

Q: And the half-life (in vivo; 11 mg/kg)?
A: The half-life was 5.36 ± 0.4 h.

Q: And the AUC (in vivo; 11 mg/kg)?
A: Its AUC is 33900 ± 3190 ng·h/mL.

Q: And the Cmax (in vivo; 11 mg/kg, Mean Cmax)?
A: Its Cmax is 6000 ± 1130 ng/mL.

Q: And the AUCtot (in vivo; 15 mg/kg)?
A: Its AUCtot is 36047 ± 22104 ng·h/mL.

Q: And the “mean Cmax” value (in vivo; 15 mg/kg)?
A: Its value is 6206 ± 3144 ng/mL.

Q: And the AUC (in vivo; 15 mg/kg)?
A: The AUC was 43900 ± 23100 ng·h/mL.

Q: What about the Cmax (in vivo; 15 mg/kg, mean Cmax) of the same compound?
A: The Cmax was 7520 ± 3310 ng/mL.

Q: What about the MIC range (P. granulosum; marker RNA 2058, phenotype EryR) of the same compound?
A: The MIC range was 8 µg/mL (≈ 9.98 µM).

Q: What about the MIC range (P. granulosum; marker RNA 2059, phenotype EryR) of the same compound?
A: The MIC range was 0.125 to 2 µg/mL.

Q: What about the MIC range (P. granulosum; marker ermX, phenotype EryR) of the same compound?
A: Its MIC range is 4 to 32 µg/mL.

Q: And the MIC range (P. granulosum; marker none, phenotype none)?
A: The MIC range was 0.06 µg/mL (≈ 0.0748 µM).
